Assay results: article PMC10016340 (Chemical Science, 2023)
Like-named read-outs stand apart in the source and are kept apart here.

Legend:
[1] = biological target: α-syn (Homo sapiens, UniProt P37840); test: ThT aggregation kinetics of α-syn; type: biochemical; settings: for Effect on α-syn fibril formation (ThT, words): 300 rpm, 37 °C
[2] = biological target: T1, αSOs-Alexa488 (Homo sapiens, UniProt P37840); test: FIDA binding of αSOs to neuronal proteins in solution
[3] = Ultracentrifugation for compound-vesicle binding; settings: 100 μM compound, 1 mM DOPG vesicles, 30 min, ultracentrifugation 1 h 40 000 rpm
[4] = biological target: T2, αSO (α-synuclein oligomers) (Homo sapiens, UniProt P37840); test: Membrane permeabilization; type: biochemical; settings: for Response in dose-response calcein assay: even at 20 μM
[5] = biological target: αSO (Homo sapiens, UniProt P37840); test: biochemical; type: binding; settings: for αSO binding signal in sandwich ELISA vs positive control: 2 mM compound, 1 μg mL^−1 αSOs
[6] = biological target: αSOs-Alexa488 binding to DOPG liposomes (Homo sapiens, UniProt P37840); test: FIDA αSO-vesicle binding inhibition assay; settings: 5 μM compound, 50 μM DOPG; αSO-vesicle complex without compound ∼60 nm
[7] = biological target: T1, αSOs-Alexa488; test: FIDA effect of lead compounds on free αSOs; type: binding; settings: 150 nM αSO, 5 μM compound; 13% without compound
[8] = biological target: T2, αSO (α-synuclein oligomers); settings: cited from earlier work
[9] = tested on: human neuroblastoma cells; settings: by inhibiting interactions with lipid membranes; cited from earlier work

With Cofilin-1 [Cfl1] the “Effect of protein ligand on α-syn aggregation (ThT, words)” value ([1]; 20 μM α-syn monomer, 1 μM ligand) was “dramatic reduction in aggregation” and the “Change in Rh of αSOs-Alexa488 on titration with ligand” value ([2]; up to 150 μM ligand, in solution) was “little change in Rh”.

With `N.N.[Cl][Pt][Cl]` [A8, Cisplatin] the “Percentage of compound bound to DOPG vesicles (pelleted)” value (“Percentage of compound bound” below) [3] was 0–2%.

With `COc1ccccc1CNCCCCCCNCCCCCCCCNCCCCCCNCc1ccccc1OC` [A6, Methoctramine] the “Percentage of compound bound” value [3] was 60–95%, the IC50 [4] was 320 nM and the “αSO binding signal in sandwich ELISA vs positive control” value [5] was “to a smaller extent”. The “Effect on lag phase of α-syn aggregation” value ([1]; 20 μM α-syn, 20 μM compound) was “modestly increased the lag phase” and the “Apparent size (Rh) of αSOs-Alexa488 in the presence of DOPG liposomes and compound” value (“Apparent size (Rh) of αSOs-Alexa488” for short) [6] was about 10 nm.

With `CC(C)(C)CC(C)(C)c1ccc(OCCOCC[N+](C)(C)Cc2ccccc2)cc1` [A3, Benzethonium] the “Percentage of compound bound” value [3] was 60–95%.

In the case of `Cc1cc(C(C)(C)CC(C)(C)C)ccc1OCCOCC[N+](C)(C)Cc1ccccc1` [A2, Methyl benzethonium], the “Percentage of compound bound” value [3] is reported as 60–95%, the “Percentage of α-syn monomers in αSO sample” value [7] is reported as 23% and the Kd [5] is reported as 120 ± 90 µM. For the same molecule, the “αSO binding signal in sandwich ELISA vs positive control” value [5] was “decrease in binding”, the “Decrease of half-time of fibrillation compared to α-syn alone” value ([1]; 20 μM α-syn, 20 μM compound) was about 2 fold and the “Apparent size (Rh) of αSOs-Alexa488” value [6] was about 10 nm.

With `[H]/N=C(\N/C(=N/[H])NCCCCCCNC(=N)NC(=N)Nc1ccc(Cl)cc1)Nc1ccc(Cl)cc1` [A1, Chlorhexidine] the “Percentage of compound bound” value [3] was 60–95%, the Kd [5] was 130 ± 40 µM and the “αSO binding signal in sandwich ELISA vs positive control” value [5] was “decrease in binding”. For the same molecule, the “Decrease of half-time of fibrillation compared to α-syn alone” value ([1]; 20 μM α-syn, 20 μM compound) was about 2 fold and the “Apparent size (Rh) of αSOs-Alexa488” value [6] was about 10 nm.

With `CC(C)=CC[C@@H](O)C1=CC(=O)c2c(O)ccc(O)c2C1=O` [A7, Shikonin] the “Response in dose-response calcein assay” value [4] was “failed to show any response” and the “αSO binding signal in sandwich ELISA vs positive control” value [5] was “slightly higher absorption than the positive control”.

For `O=C(O[C@@H]1Cc2c(O)cc(O)cc2O[C@@H]1c1cc(O)c(O)c(O)c1)c1cc(O)c(O)c(O)c1` [EGCG], the “Percentage of compound bound” value [3] is listed as 0–2%, the “Percentage of α-syn monomers in αSO sample” value [7] is listed as 22% and the “Inhibition of calcein release” value ([8]; positive control) is listed as “completely inhibits calcein release”. The “Effect on α-syn fibril formation (ThT, words)” value ([1]; 20 μM α-syn, 20 μM compound) was “completely inhibited fibril formation” and the “Apparent size (Rh) of αSOs-Alexa488” value [6] was 50 nm.

With Serine-tRNA ligase [SerRS] the “Reduction of half-time of α-syn fibrillation” value ([1]; 20 μM α-syn, 1 μM ligand) was “more than 3 fold” and the “Rh of αSOs-Alexa488 after binding to ligand” value ([2]; 100–150 μM ligand, αSO alone 10 nm) was about 12.5 nm.

For `C=C1c2cccc(O)c2C(=O)C2=C(O)[C@]3(O)C(=O)C(C(N)=O)=C(O)[C@@H](N(C)C)[C@@H]3[C@@H](O)[C@H]12` [A5, Metacycline], the “Response in dose-response calcein assay” value [4] was “failed to show any response”, the “αSO binding signal in sandwich ELISA vs positive control” value [5] was “slightly higher absorption than the positive control” and the “Effect on α-syn fibril formation (ThT, words)” value ([1]; 20 μM α-syn, 20 μM compound) was “completely inhibited fibril formation”.

With `N.N.O=C([O-])C1(C(=O)[O-])CCC1.[Pt+2]` [A9, Carboplatin] the “Response in dose-response calcein assay” value [4] was “failed to show any response”.

In the case of `C/C=C1/[C@H](O[C@@H]2O[C@H](CO)[C@@H](O)[C@H](O)[C@H]2O)OC=C(C(=O)OC)[C@H]1CC(=O)OCCc1ccc(O)c(O)c1` [oleuropein], the “Inhibition of calcein release” value ([8]; negative control) is listed as “weak or no inhibitory effect”.

For `CC(C)[C@@H](CC[C@@H](C)[C@H]1CC[C@H]2[C@@H]3[C@H](O)C[C@H]4C[C@@H](NCCCNCCCCN)CC[C@]4(C)[C@H]3CC[C@]12C)OS(=O)(=O)O` [squalamine], the “Suppression of αSO toxicity” value [9] is given as “completely suppress the toxicity of αSOs”.
